Source: EP0293814A1, “Mono- and polyhydroxyacyl derivatives of polyoxygenated labdanes, a process for their production and their use as drugs” (HOECHST AKTIENGESELLSCHAFT, priority 1987, dated 1988)

Assay: Lowering of intraocular pressure, Schiotz tonometry
Format: in vivo
Text: Die Labdane der vorliegenden Anmeldung eignen sich zur Behandlung des erhöhten Augeninnendrucks, weil sie, wie mit der Schiotz-Tonometrie nachgewiesen, die Eigenschaft besitzen, den Augeninnendruck herabzusetzen (s. Capriol. J., Sears, M., Lancet, 1, (1983) 958 - 96).
Die Wirksamkeit einiger repräsentativer Verbindungen gemäß der Erfindung ist als prozentuale Senkung des Augeninnendrucks ausgedrückt und in Tab. 2 dargestellt.

| SMILES | Senkung des Augeninnendrucks (%) (Konzentration 2 %) | Senkung des Augeninnendrucks (%) (Konzentration 0,1 %) | Senkung des Augeninnendrucks (%) (Konzentration 0,5 %) | Senkung des Augeninnendrucks (%) (Konzentration 0,25 %) | Erniedrigung des Augeninnendrucks (in words, compared with the other substances of the invention (Tab. 2)) |
| --- | --- | --- | --- | --- | --- |
| C=C[C@@]1(C)CC(=O)[C@]2(O)[C@@]3(C)[C@@H](OC(=O)COC=O)CCC(C)(C)[C@@H]3[C@H](O)[C@H](OC(=O)COC=O)[C@@]2(C)O1 [compound 5] | 26% |  |  |  |  |
| C=C[C@@]1(C)CC(=O)[C@]2(O)[C@@]3(C)[C@@H](O)CCC(C)(C)[C@@H]3[C@H](O)[C@H](OC(=O)[C@H](O)CO)[C@@]2(C)O1 [compound 7] | 27% | 17% | 25% | 24% | wesentlich besser erniedrigt als die anderen Substanzen der Erfindung |
| C=C[C@@]1(C)CC(=O)[C@]2(O)[C@@]3(C)[C@@H](O)CCC(C)(C)[C@@H]3[C@H](OC(=O)COCC)[C@H](O)[C@@]2(C)O1 [compound 2] | 20% |  |  |  |  |
| C=C[C@@]1(C)CC(=O)[C@]2(O)[C@@]3(C)[C@@H](O)CCC(C)(C)[C@@H]3[C@H](O)[C@H](OC(=O)COCC)[C@@]2(C)O1 [compound 1] | 31% |  |  |  |  |
